The values that follow come from US4605674A, “Substituted acetophenones and compositions containing them” (Hoffmann-La Roche Inc., priority 1979, dated 1986).

Converted amounts (≈) assume the structure as drawn. Like-named read-outs stand apart in the source and are kept apart here. A value given as a limit tells only on which side of the number the result lay.

Usually LD50 stands for the dose at which mortality reaches 50%.

A short description of one series: in vivo. As to conditions: mouse, DDY mice, single dose. On the procedure:
^(1) DDY mice weighing 15-20 g were treated with a single dose of the
compound. Survivors were recorded on day 21.
^(2) Compounds were dissolved in dimethylsulfoxide.
^(3) Compounds were suspended with solution of 0.5% carboxymethyl

Another series deals with rhinovirus HGP. Nature of the series: Inhibition of viral cytopathogenic effect (c.p.e.) of rhinovirus HGP in HeLa cells. Format: cell-based, human rhinoviruses. To be noted: Enterovirus, 48 h, read-out: IC50 against rhinovirus HGP (concentration inhibiting the viral c.p.e. by 50%). On the procedure:
A suspension of HeLa cells (6×10^4) was mixed with rhinovirus HGP (3×10^3 plaque forming units, PFU) and was plated in a microtest plate containing the compounds to be tested serially diluted. The cells were then cultured with Eagle's minimum essential medium containing 2% calf serum, 1% tryptose phosphate broth, 100 μg/ml of streptomycin sulfate and 20 unit/ml of penicillin G. Viral c.p.e. (cytopathogenic effect) was observed by a microscope after 2 days culture at 33° C.
The antiviral activity of the tested compounds is expressed by the concentration inhibiting the viral c.p.e. by 50% when compared to the control culture (IC50).
On the technique in general: Cytopathic effects are the visible damage that an infection or toxin causes in cultured cells.

[1] abbreviates: ip, i.p., dissolved in dimethylsulfoxide, day 21, read-out: LD50 i.p.
The mark [2] stands for this setting: po, p.o., suspended in 0.5% carboxymethyl cellulose, day 21, read-out: LD50 p.o.
Where [3] appears, read: HeLa cells, 2 days culture at 33° C.

For the molecule `COc1ccc(/C=C/C(=O)c2c(OC)cc(OC)cc2OC(=O)c2cnccn2)cc1` [2',4,4'-trimethoxy-6'-(pyrazinylcarbonyloxy)-chalcone], the median lethal dose (LD50) at 504 h was above 500 mg/kg in the series “in vivo” (setting [1]) and above 4000 mg/kg in the series “in vivo” (setting [2]). Also, the IC50 with rhinovirus HGP (HeLa) was in the range of 0.03 to 0.1 µg/mL (≈ 0.0714 to 0.238 µM).

On to `CCOc1ccc(/C=C/C(=O)c2c(O)cc(OC)cc2OCC)cc1` [2',4-diethoxy-6'-hydroxy-4'-methoxychalcone], for which the LD50 at 504 h in “in vivo” (setting [1]) is above 500 mg/kg; in “in vivo” (setting [2]), above 5000 mg/kg. Further, the IC50 in the series with rhinovirus HGP (HeLa) is 0.1 µg/mL (≈ 0.292 µM).

On to `COc1ccc(/C=C/C(=O)c2c(OC)cc(OC)cc2OC(=O)C(C)(C)C)cc1` [2',4,4'-trimethoxy-6'-(pivaloyloxy)-chalcone], for which the figures for the median lethal dose (LD50) at 504 h in the series “in vivo” (setting [1]) and in “in vivo” (setting [2]) were above 1000 mg/kg and above 5000 mg/kg, respectively. The IC50 in the series on rhinovirus HGP (HeLa) lay in the range of 0.01 to 0.03 µg/mL (≈ 0.0251 to 0.0753 µM).

As for `COc1cccc(/C=C/C(=O)c2c(O)cc(OC)cc2OC)c1` [2'-hydroxy-3,4',6'-trimethoxychalcone], the results for the LD50 at 504 h in “in vivo” (setting [1]) and in “in vivo” (setting [2]) were above 500 mg/kg and above 1000 mg/kg, respectively. In addition, the IC50 with rhinovirus HGP (HeLa) amounted to 0.1 µg/mL (≈ 0.318 µM).

Turning to `C=CCOc1ccc(/C=C/C(=O)c2c(OC)cc(OC)cc2OC(=O)CC)cc1` [4-(allyloxy)-2',4'-dimethoxy-6'-(propionyloxy)-chalcone], the LD50 at 504 h in the series “in vivo” (setting [1]) was above 500 mg/kg; in the series “in vivo” (setting [2]) it was above 1000 mg/kg. For the same molecule, the IC50 in the series with rhinovirus HGP (HeLa) is 0.03 to 0.1 µg/mL (≈ 0.0757 to 0.252 µM).

On to `CCCOc1cc(OC)cc(O)c1C(=O)/C=C/c1ccc(OC)cc1` [2'-hydroxy-4,4'-dimethoxy-6'-propoxychalcone], for which the LD50 at 504 h was above 500 mg/kg in the series “in vivo” (setting [1]) and above 1500 mg/kg in “in vivo” (setting [2]). For the same molecule, the IC50 with rhinovirus HGP (HeLa) came out at 0.06 µg/mL (≈ 0.175 µM).

For `COc1cc(O)c(C(=O)/C=C/c2ccc(SC)cc2)c(OC)c1` [2'-hydroxy-4',6'-dimethoxy-4-(methylthio)-chalcone], the LD50 at 504 h was above 1000 mg/kg in the series “in vivo” (setting [1]) and above 5000 mg/kg in “in vivo” (setting [2]). Further, the IC50 in the series on rhinovirus HGP (HeLa) worked out at 0.03 µg/mL (≈ 0.0908 µM).

Take `COc1ccc(/C=C/C(=O)c2c(O)cc(OC)cc2OC(C)C)cc1` [2'-hydroxy-6'-isopropoxy-4,4'-dimethoxychalcone]: the LD50 at 504 h was above 500 mg/kg in “in vivo” (setting [1]) and above 2700 mg/kg in the series “in vivo” (setting [2]). For the same molecule, the IC50 in the series with rhinovirus HGP (HeLa) was in the range of 0.1 to 0.2 µg/mL (≈ 0.292 to 0.584 µM).

`CCCCCCCCCCCCCCCCCC(=O)Oc1cc(OC)cc(OC)c1C(=O)/C=C/c1ccc(OC)cc1` [2',4,4'-trimethoxy-6'-(octadecanoyloxy)chalcone]: the median lethal dose (LD50) at 504 h is above 500 mg/kg in the series “in vivo” (setting [1]) and above 4000 mg/kg in “in vivo” (setting [2]). Besides, the IC50 with rhinovirus HGP (HeLa) was in the range of 0.05 to 0.1 µg/mL (≈ 0.0861 to 0.172 µM).

On to `COc1cc(O)c(C(=O)/C=C/c2ccc(O)cc2)c(OC)c1` [2',4-dihydroxy-4',6'-dimethoxychalcone], for which the LD50 at 504 h in the series “in vivo” (setting [1]) is above 500 mg/kg; in the series “in vivo” (setting [2]), above 3200 mg/kg. The IC50 with rhinovirus HGP (HeLa) fell in the range of 0.3 to 1 µg/mL (≈ 0.999 to 3.33 µM).

`COc1cc(O)c(C(=O)/C=C/c2ccc(C#N)cc2)c(OC)c1` [4-cyano-2'-hydroxy-4',6'-dimethoxychalcone]: the LD50 at 504 h was above 500 mg/kg in “in vivo” (setting [1]) and above 1000 mg/kg in “in vivo” (setting [2]). In addition, the IC50 with rhinovirus HGP (HeLa) stood at 0.3 µg/mL (≈ 0.97 µM).

For the molecule `CCC(=O)Oc1cc(OC)cc(OC)c1C(=O)C=Cc1ccco1` [3-(2-furyl)-2',4'-dimethoxy-6'-(propionyloxy)-acrylophenone], the values for the 50% lethal dose (LD50) at 504 h in the series “in vivo” (setting [1]) and in “in vivo” (setting [2]) were above 500 mg/kg and above 1000 mg/kg, respectively. Besides, the IC50 in the series on rhinovirus HGP (HeLa) was in the range of 0.1 to 0.3 µg/mL (≈ 0.303 to 0.908 µM).

For the molecule `CCOc1cc(OC)cc(O)c1C(=O)C=Cc1ccc(C)o1` [2'-ethoxy-6'-hydroxy-4'-methoxy-3-(5-methyl-2-furyl)-acrylophenone], the median lethal dose (LD50) at 504 h in the series “in vivo” (setting [1]) is above 500 mg/kg; in the series “in vivo” (setting [2]), above 1000 mg/kg. Also, in the series with rhinovirus HGP (HeLa), the IC50 turned out to be 0.04 µg/mL (≈ 0.132 µM).

Take `COc1cc(O)c(C(=O)/C=C/c2cccc(OC)c2OC)c(OC)c1` [2'-hydroxy-2,3,4',6'-tetramethoxychalcone]: the LD50 at 504 h in “in vivo” (setting [1]) is above 500 mg/kg; in “in vivo” (setting [2]), above 1000 mg/kg. Also, in the series with rhinovirus HGP (HeLa), the IC50 worked out at 0.1 µg/mL (≈ 0.29 µM).

In the case of `CCOc1ccc(/C=C/C(=O)c2c(O)cc(OCC)cc2OCC)cc1`, the results for the LD50 at 504 h in “in vivo” (setting [1]) and in “in vivo” (setting [2]) were above 1000 mg/kg and above 3000 mg/kg, respectively. Further, the IC50 with rhinovirus HGP (HeLa) was found to be 0.25 µg/mL (≈ 0.701 µM).

As to `COc1cc(O)c(C(=O)C=Cc2cccnc2)c(OC)c1` [2'-hydroxy-4',6'-dimethoxy-3-(3-pyridyl)-acrylophenone], the IC50 with rhinovirus HGP (setting [3]) was found to be 0.6 µg/mL (≈ 2.1 µM).

Take `CCN(CC)c1ccc(/C=C/C(=O)c2c(O)cc(OC)cc2OC)cc1` [4-(diethylamino)-2'-hydroxy-4',6'-dimethoxychalcone]: the IC50 in the series on rhinovirus HGP (setting [3]) was 0.6 to 2 µg/mL (≈ 1.69 to 5.63 µM).

Consider `COc1cc(O)c(C(=O)/C=C/c2ccc(O)c(OC)c2)c(OC)c1` [2',4-dihydroxy-3,4',6'-trimethoxychalcone], for which the IC50 with rhinovirus HGP (setting [3]) lay within 0.3 to 1 µg/mL (≈ 0.908 to 3.03 µM).

On to `COc1cc(O)c(C(=O)/C=C/c2ccc(N)cc2)c(OC)c1` [4-amino-2'-hydroxy-4',6'-dimethoxychalcone], for which the IC50 in the series on rhinovirus HGP (setting [3]) was 0.03 to 0.1 µg/mL (≈ 0.1 to 0.334 µM).
